The record followed here is patent US8349801B2, “Peptide ligands for G-protein coupled receptors” (priority 2006, dated 2013).

No end group written: not given here.

The test system of experiment [1] is Isoproterenol induced rats. The experiment in a line: Cardiac remodeling induced by Isoproterenol. The class given is in vivo, Wistar rats. The following applies: 1 ug/hour/Kg osmotic minipump, partial data. The protocol: The effect of the peptides […] (SEQ ID NO:10), […]-dimer ([…]) (SEQ ID […]), P33_V (SEQ ID NO:7), P33-dimer (P33_D) (SEQ ID NO:6) on cardiac remodeling, was tested by determining their effect on heart hypertrophy and fibrosis (deposition of collagen I, III, and fibronectin) induced by Isoproterenol. Losartan (an antagonist of the known angiotensin II receptor, AT1, Kucharewicz et al., 2002; Hypertension, (40): 774-779) was used as positive control. The negative control group was treated with vehicle only. Additional control groups included rats not-treated with isoproterenol which were treated with the peptides, with Losartan or with the vehicle. The analysis included determination of the left ventricle mass and morphometry. In addition, immunofuorescence analysis of fibronectin and collagens I and III deposition was performed by confocal microscopy. Animals Acclimatization: Male Wistar rats Age: 13-14 weeks (250 to 300 g) were maintained in the animal facilities for 7 days before the beginning of the experiment. The animals were exposed to a brightness circle of light-dark cycle of 12 hs (day-06:00 to 18:00; night-18:00 to 06:00), and the room temperature was kept at 23±2° C. Heart failure was induced by daily injections of isoproterenol (2 mg/kg/day, subcutaneously) during 7 days. […] Immunofluorescence-labeling and quantitative confocal microscopy was used to investigate the distribution and quantity of collagen types I, III and fibronectin present in the left ventricles. […] Optimal confocal settings (aperture, gain and laser power) were determined at the beginning of each imaging session and then held constant during the analysis of all the samples. […] For quantitative analysis of collagens I, III, and fibronectin, the ImageTool 2.0 image analysis program was used ([…].edu/[…]) to measure the fluorescence intensity in images randomly selected. […]

Another experiment concerns the target T1, Mas receptor (Homo sapiens, UniProt P04201).
T1 construct: expressed in transfected cells; host or cells: CHO-K1 (ATCC-CCL-61), transient co-transfection
T1 sequence (P04201 1-325): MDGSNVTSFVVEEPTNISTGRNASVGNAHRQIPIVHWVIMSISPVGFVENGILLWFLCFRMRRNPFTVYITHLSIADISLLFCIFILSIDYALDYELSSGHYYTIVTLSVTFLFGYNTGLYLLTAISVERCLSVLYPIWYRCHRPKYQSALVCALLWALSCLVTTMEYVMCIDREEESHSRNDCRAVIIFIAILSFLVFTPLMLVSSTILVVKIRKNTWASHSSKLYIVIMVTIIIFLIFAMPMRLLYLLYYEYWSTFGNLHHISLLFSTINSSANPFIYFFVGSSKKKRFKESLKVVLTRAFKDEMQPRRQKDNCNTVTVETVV
Put plainly: Calcium flux in CHO-K1 cells co-transfected with Mas receptor and Gα16. The class given is cell-based. The following applies: dose response. The protocol:
The assay was carried out in CHO cells were transiently transfected with the GPCR of choice, by utilizing the promiscuous Gα16 to divert signaling to the Gq pathway, thus enabling readout of GPCR activation by testing for Calcium flux as described by Liu et al 2003 (Biomol Screen 8, 39-49).
All the peptides thus obtained were tested for their ability to change calcium flux in CHO—K1 cells (ATCC-CCL-61) transiently co-transfected with an expression vector containing the GPCR of choice and expression vector containing the Gα16 encoding cDNA. Expression constructs containing cDNA clones for MrgX1, MrgX2, Mas or FPRL1 were commercially obtained in one of the following expression vectors: pcDNA3.1, pCMV6, or MO2.
Transient transfections were performed using CHO—K1 cells as host cells. Cells (12 million) were plated into T75 flasks on the day preceding transfection. Cells were transfected with the appropriate GPCR expression vector and with a vector expressing Gα16 using a lipid-based reagent, MTI, according to the manufacturer's recommendation. Cells were transfected for 5 hours, then re-plated into 96-well dishes (60,000 cells per well) and grown overnight.
On the day of the experiment, cells were loaded with Fluo4-NW (Invitrogen) according to the manufacturer's recommendation. Plates were loaded into a FlexStation™ (Molecular Devices) plate reader and fluorescence was monitored. Seventeen seconds following initiation of reading, cells were stimulated with the indicated agonist/compound at final concentration of 1 μM. Each 96 well plate contained cells transfected with one GPCR expression vector and each of the examined peptides was tested in triplicate.
We defined a hit as a peptide which elicited a clear and distinct increase in intracellular calcium that is clearly visible and statistically significant upon examination of the calcium trace for at least two repeats. The criterion for statistical significance was a p-value lower than 0.001 in a t-test comparing the levels of calcium before and after peptide addition.
Based on dose response experiments, EC50 best fit values were calculated by non-linear regression of sigmoidal dose-response curves, using Prism version 4 (GraphPad Software Inc., San Diego, Calif.). The formulae for the sigmoidal dose-response curves was defined as Y=Bottom+(Top−Bottom)/(1+10^ (LogEC50−X)*HillSlope))
The ability of Peptides to change calcium flux was examined in CHO—K1 cells co-transfected with Mas receptor and Gα16.

For “FLGYCIYLNRKRRGDPAFKRRLRD (also: dimer via cysteine; listed as Homo sapiens) [Peptide P61_dimer]”, in experiment [1] (3 out of 6 animals), the “effect as measured by Fibronectin deposition” value is “not significant”. For the same sequence, the “heart hypertrophy induced by Isoproterenol, as indicated by deposition of fibronectin, Collagen I and Collagen III” value in experiment [1] (3 out of 6 animals of each group) is reported as “effective in reducing the heart hypertrophy”. The “ability to induce calcium flux, P61-related peptides compared” value with Mas receptor was “more potent than the monomeric P61 peptides”.
